Assay results reported in patent publication US20240148779A1, “METHODS FOR THE TREATMENT OF PROTEINOPATHIES” (RENATUS INC., priority 2022, published 2024).

What was measured:
SH-SY5Y cells [1] = test: Cytotoxicity induced by pre-aggregated Aβ42 in SH-SY5Y cells (CCK-8); format: cell-based; details: Aβ42 25 μM, 48 hours, cyclodextrins 1, 2.5 and 5 mg/mL, FIG. 7
Experimental: (§1) Amyloid beta 1-42 (Aβ42) was dissolved in distilled water at a concentration of 1 mM, vortexed for 30 seconds, and then incubated at 37° C. for 7 days to induce pre-aggregation. […] ARPE-19 cells were maintained using DMEM/F12 media containing 10% fetal bovine serum, 1% Penicillin-Streptomycin, 1% HEPES, and 2.5 mM L-Glutamine. […] On the next day, the cells were treated with pre-aggregated Aβ42 at a concentration of 25 μM for 48 hours in the presence of cyclodextrins (1, 2.5, and 5 mg/mL).
Then, we investigated the effects of molecular weights of gamma-cyclodextrin oligomers on the cytotoxicity induced by protein aggregates. […] The SH-SY5Y cells were treated with pre-aggregated Aβ42 for 48 hours in the presence of cyclodextrins (5 mg/mL).

ARPE-19 cells = test: Cytotoxicity induced by pre-aggregated Aβ42 in ARPE-19 cells (CCK-8); format: cell-based; details: ARPE-19, Aβ42 25 μM, 48 hours, cyclodextrins 1, 2.5 and 5 mg/mL, FIG. 7
Experimental: as §1

SH-SY5Y cells [2] = test: Plasma membrane cholesterol extraction in SH-SY5Y cells; format: cell-based; details: cyclodextrin 20 mg/mL, 37° C., 1 hour, FIG. 11
Experimental: Since cyclodextrin-mediated cytotoxicity is known to be caused by excessive plasma membrane cholesterol extraction and consequential membrane disruption, we investigated cholesterol extraction from the cells. […] The next day, the cells treated with cyclodextrins at a concentration of 20 mg/mL at 37° C. for 1 hour. The supernatant was collected, centrifuged at a rate of 14,000 g for 30 minutes to remove cell debris and microvesicles, and then the cholesterol concentration in the supernatant was quantified using a Cholesterol Quantification Kit (Sigma Aldrich).

SH-SY5Y cells [3] = test: Cytotoxicity induced by pre-aggregated alpha-synuclein in SH-SY5Y cells; format: cell-based; details: αSyn 1 μM, 24 hours, cyclodextrins 1, 2.5 and 5 mg/mL, FIG. 8
Experimental: as §1
Using the SH-SY5Y cells, the cytotoxicity of aggregated alpha-synuclein (αSyn) was evaluated. The cells were treated with pre-aggregated αSyn (1 μM) for 24 hours in the presence of cyclodextrins (1, 2.5, and 5 mg/mL).

SH-SY5Y cells [4] = test: Cytotoxicity induced by cyclodextrins in SH-SY5Y cells (CCK-8)
Experimental: HPBCD oligomer was prepared by using hydroxypropyl-beta-cyclodextrin (HPBCD) monomers with a molar substitution value between 0.4 and 0.8. […] SH-SY5Y cells were maintained using DMEM containing 10% fetal bovine serum, 1% Penicillin-Streptomycin, and retinoic acid (50 μM) to induce differentiation into neuron-like cells. Media was changed total three times (1, 3, and 5 days post-seeding) and the cells were seeded for experiments on the next day. The cells were seeded in a 96-well plate at a density of 5×10^4 cells per well. On the next day, the cells were treated with each cyclodextrin at 2.5 mg/mL, 5 mg/mL, 10 mg/mL, and 20 mg/mL for 24 hours. Cellular viability was measured using Cell Counting Kit-8 (CCK-8) and measuring the absorbance at 450 nm.

TNF-α = test: Aβ42 aggregate-induced inflammation, secreted TNF-α by ELISA in SH-SY5Y cells; format: cell-based; details: Aβ42 25 μM, 24 hours, cyclodextrins 2.5 mg/mL, FIG. 12
Experimental: The pre-aggregated Aβ42 was treated at a concentration of 25 μM for 24 hours with or without cyclodextrins and enzyme-linked immunosorbent assay (ELISA) was performed to measure inflammatory cytokines secreted by the cells. […] GCD oligomer was prepared by using gamma-cyclodextrin (GCD) monomers.

| Compound | effect on cytotoxicity induced by Aβ42 aggregate (SH-SY5Y cells [1]) | effect on cytotoxicity induced by Aβ42 aggregate (ARPE-19 cells) | level of plasma membrane cholesterol extraction (SH-SY5Y cells [2]) | effect on cytotoxicity induced by αSyn aggregate (SH-SY5Y cells [3]) | cellular viability (SH-SY5Y cells [4]; SH-SY5Y, cyclodextrin 20 mg/mL, 24 hours, FIG. 10) [%] | level of secreted TNF-α (TNF-α) | cellular viability (SH-SY5Y cells [4]; human, 24 h, 20 mg/mL) [%] |
| --- | --- | --- | --- | --- | --- | --- | --- |
| hydroxypropyl-gamma-cyclodextrin [HPGCD] | did not show such effect | did not show such effect | no significance compared to PBS | less effective | 81.38 | did not show significant effect |  |
| CC(O)COC[C@H]1O[C@@H]2O[C@H]3[C@H](O)[C@@H](O)[C@@H](O[C@H]4[C@H](O)[C@@H](O)[C@@H](O[C@H]5[C@H](O)[C@@H](O)[C@@H](O[C@H]6[C@H](O)[C@@H](O)[C@@H](O[C@H]7[C@H](O)[C@@H](O)[C@@H](O[C@H]8[C@H](O)[C@@H](O)[C@@H](O[C@H]1[C@H](O)[C@H]2O)O[C@@H]8COCC(C)O)O[C@@H]7COCC(C)O)O[C@@H]6COCC(C)O)O[C@@H]5COCC(C)O)O[C@@H]4COCC(C)O)O[C@@H]3COCC(C)O (stereo partly drawn) [HPBCD, hydroxypropyl-beta-cyclodextrin] |  |  |  |  |  | did not show significant effect | 43.25 |
